# Laboratory results taken from patent US20150289512A1, “METHOD FOR PROMOTING PLANT GROWTH” (SUMITOMO CHEMICAL COMPANY, LIMITED, priority 2012, published 2015).
# Experiments:
# [1] = system: Rice (variety: Nipponbare); test: Test Example 1: promotion of root growth by hydroponics of rice, 10 ppm; assay type: in vivo; settings: Oryza sativa, hydroponic solution containing the test compound at 10 ppm, average of 4 or 5 individuals, read-out: Relative value of length of seminal root (%-untreated control plot)
# Outline: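 Surface-sterilised seeds germinated 3 days in the dark at 28° C in hydroponic solution with compound at 10 ppm, then grown 3 days hydroponically with compound at 10 ppm (26° C, 4,000 lux, 16 h day, 50% humidity). Seminal root length measured by image analysis, averaged over 4 or 5 plants per plot.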
# [2] = system: Nicotiana benthamiana; test: Test Example 4: growth promotion under low-temperature stress by hydroponics of Nicotiana benthamiana, 10 ppm; assay type: in vivo; settings: 10 ppm in medium, low-temperature stress 7 days at 1.5±1.0° C., green leaf area 3 days later, equation (1)
# Outline: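 Nicotiana benthamiana grown 7 days at 22 °C in half-strength Murashige-Skoog medium, pH 5.8, with compound at 10 ppm (DMSO 1/1,000 v/v), chilled 7 days at 1.5±1.0 °C, recovered 3 days at 22 °C. Green leaf area expressed relative to stressed and unstressed DMSO controls; ≥5 scored as mitigating.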
Compound,change in vivo at 10 ppm [1] [%],relative leaf area at 10 ppm [2] [%]
O=C(NCc1ccccc1)c1cc2cc(C(F)(F)F)ccc2o1 [Compound 54],> 5,≥ 5
Cc1c(C(=O)O)oc2ccccc12 [Compound 36],> 5,–
COC(=O)c1cc2ccccc2o1 [Compound 1],–,≥ 5
COC(=O)c1oc2ccc(C(F)(F)F)cc2c1C [Compound 33],> 5,≥ 5
O=C(O)c1nc2c(F)cc(F)cc2s1 [Compound 86],> 5,≥ 5
COC(=O)c1oc2ccc(C(F)(F)F)cc2c1NS(=O)(=O)c1ccccc1 [Compound 68],> 5,–
COC(=O)c1oc2ccccc2c1C(F)(F)F [Compound 83],–,≥ 5
O=C(O)c1oc2ccc(C(F)(F)F)cc2c1C(F)(F)F [Compound 69],> 5,≥ 5
O=C(Nc1ccccc1)c1oc2ccc(C(F)(F)F)cc2c1C(F)(F)F [Compound 76],> 5,–
CCOC(=O)c1oc2ccc(C(F)(F)F)cc2c1C(F)(F)F [Compound 71],> 5,≥ 5
COC(=O)c1oc2ccc(C(F)(F)F)cc2c1N(C(C)=O)C(C)=O [Compound 64],–,≥ 5
COC(=O)c1oc2ccccc2c1NC(=O)C(F)(F)F [Compound 39],> 5,≥ 5
COC(=O)c1oc2ccc(C(F)(F)F)cc2c1O [Compound 50],> 5,–
NC(=O)c1cc2cc(C(F)(F)F)ccc2o1 [Compound 51],> 5,≥ 5
NC(=O)c1oc2ccc(C(F)(F)F)cc2c1C(F)(F)F [Compound 74],> 5,≥ 5
CNC(=O)c1cc2cc(C(F)(F)F)ccc2o1 [Compound 52],> 5,–
COC(=O)c1oc2ccc(C(F)(F)F)cc2c1NC(C)=O [Compound 63],> 5,≥ 5
O=C(OCc1ccccc1)c1cc2cc(C(F)(F)F)ccc2o1 [Compound 56],> 5,≥ 5

Compound,change in vivo at 10 ppm [1] [%],relative leaf area at 10 ppm [2] [%]
CNC(=O)c1oc2ccc(C(F)(F)F)cc2c1C(F)(F)F [Compound 75],> 5,≥ 5
CCOC(=O)c1cc2c(C(F)(F)F)cccc2o1 [Compound 44],> 5,≥ 5
O=C(Oc1ccccc1)c1cc2cc(C(F)(F)F)ccc2o1 [Compound 55],> 5,≥ 5
Cc1c(C(=O)O)oc2ccc(C(F)(F)F)cc12 [Compound 34],–,≥ 5
COC(=O)c1oc2ccc(C(F)(F)F)cc2c1NS(C)(=O)=O [Compound 67],> 5,≥ 5
COC(=O)c1oc2ccccc2c1NC(C)=O [Compound 40],> 5,≥ 5
O=C(O)c1oc2ccccc2c1C(F)(F)F [Compound 82],> 5,≥ 5
O=C(NCc1ccccc1)c1oc2ccc(C(F)(F)F)cc2c1C(F)(F)F [Compound 77],–,≥ 5
NC(=O)c1oc2ccccc2c1C(F)(F)F [Compound 85],> 5,–
O=C(Nc1ccccc1)c1cc2cc(C(F)(F)F)ccc2o1 [Compound 53],> 5,≥ 5
O=C(O)c1cc2cc(Br)ccc2o1 [Compound 79],–,≥ 5
O=C(OCc1ccccc1)c1oc2ccc(C(F)(F)F)cc2c1C(F)(F)F [Compound 73],–,≥ 5
COC(=O)c1oc2ccccc2c1C [Compound 37],> 5,–
COC(=O)c1oc2ccc(C(F)(F)F)cc2c1NC(=O)C(F)(F)F [Compound 65],–,≥ 5
COC(=O)c1oc2ccccc2c1N(C(C)=O)C(C)=O [Compound 41],–,≥ 5
COC(=O)c1oc2ccc(C(F)(F)F)cc2c1N(C)C [Compound 62],> 5,≥ 5
O=C(O)c1cc2c(C(F)(F)F)cccc2o1 [Compound 43],> 5,≥ 5
CCOC(=O)c1oc2cccc(O)c2c1C [Compound 80],> 5,–
